Like-named read-outs stand apart in the source and are kept apart here.
Assays:
HepG2 = experiment: Incorporation of 14C-acetate in the lipidic classes in HepG2 cells (hypolipidaemic activity); assay type: cell-based, human; conditions: for Incorporation of 14C-acetate: Cholesterol / Incorporation of 14C-acetate: Esters of Cholesterol / Incorporation of 14C-acetate: Fatty acids / Incorporation of 14C-acetate: Phospholipids / Incorporation of 14C-acetate: Triglycerides: per culture plate; for inhibition at 1 µM / inhibition at 10 µM: Homo sapiens, HepG2
Procedure: The hypolipidaemic activity of some lactones of general formula I has been evaluated in vitro by testing their influence on the synthesis of the cell lipids like cholesterol, fatty acids, triglycerides, phospholipids and esters of the cholesterol, described by Barnhard J. W. in Amer. J. Cardiol., 62, 52B-56B, (1988).
The synthesis of the lipids has been studied by incubating cells coming from a human hepatocarcinoma (HepG2-American Type Culture Collection) in presence of ^14 C-acetate (Amersham) and by measuring the incorporation of the radioactive precursor in the main lipidic classes by means of chromatographic separation on silica gel (Merck F254), according to the method described by Skipski V. P. et al. in Biochem. Biophys. Acta, 106, 386-396, (1965) and by means of scintillographic dosage with β-counter Beckman scintillator, according to the method reported by Gherardi E. and Calandra S. in Lipids, 15, 108-112, (1980).
The data reported in tables 4 and 5 refer to the incorporation of ^14 C-acetate in the various lipidic classes, expressed as radioactivity in count per minute (cpm) for culture plate, for some lactones, in comparison with the probucol and the gemfibrozil, used as positive controls and with the solvent ethanol, used as negative control.
The percents in brackets express the lowering of the ^14 C-acetate in the various lipidic classes referred to the control, i.e. to the physiological solution. […] The confluence cells have been exposed to the products tested for 24 hours; at the end of the incubation the monolayer has been solubilized and the optical density of the lysate at λ260 nm has been measured. The value of the absorbance is direct function of the amount of the macromolecules present and therefore indirectly of the number of the cells.

LDL = conditions: in vitro, LDL incubated with antioxidizer; cited from earlier work
men and women = conditions: considerable amounts of Vitamin E; cited from earlier work

Cc1ccc(C)c(OCCCC(C)(C)C(=O)O)c1 [Gemfibrozil, reference compound]
influence on the synthesis of the triglycerides (HepG2): remarkable activity | Incorporation of 14C-acetate: Cholesterol (HepG2; 1 μM): 20820 cpm | Incorporation of 14C-acetate: Esters of Cholesterol (HepG2; 1 μM): 968 cpm | Incorporation of 14C-acetate: Fatty acids (HepG2; 1 μM): 299 cpm | Incorporation of 14C-acetate: Phospholipids (HepG2; 1 μM): 132598 cpm | Incorporation of 14C-acetate: Triglycerides (HepG2; 1 μM): 84593 cpm | Incorporation of 14C-acetate: Cholesterol (HepG2; 10 μM): 25306 cpm | Incorporation of 14C-acetate: Esters of Cholesterol (HepG2; 10 μM): 1156 cpm | Incorporation of 14C-acetate: Fatty acids (HepG2; 10 μM): 376 cpm | Incorporation of 14C-acetate: Phospholipids (HepG2; 10 μM): 164252 cpm | Incorporation of 14C-acetate: Triglycerides (HepG2; 10 μM): 96533 cpm | inhibition at 1 µM (HepG2; 1 μM, read-out: Incorporation of 14C-acetate: Cholesterol, percent referred to physiological solution): 34% | inhibition at 1 µM (HepG2; 1 μM, read-out: Incorporation of 14C-acetate: Esters of Cholesterol, percent referred to physiological solution): 76% | inhibition at 1 µM (HepG2; 1 μM, read-out: Incorporation of 14C-acetate: Fatty acids, percent referred to physiological solution): 55% | inhibition at 1 µM (HepG2; 1 μM, read-out: Incorporation of 14C-acetate: Phospholipids, percent referred to physiological solution): 47% | inhibition at 1 µM (HepG2; 1 μM, read-out: Incorporation of 14C-acetate: Triglycerides, percent referred to physiological solution): 22% | inhibition at 10 µM (HepG2; 10 μM, read-out: Incorporation of 14C-acetate: Cholesterol, percent referred to physiological solution): 20% | inhibition at 10 µM (HepG2; 10 μM, read-out: Incorporation of 14C-acetate: Esters of Cholesterol, percent referred to physiological solution): 71% | inhibition at 10 µM (HepG2; 10 μM, read-out: Incorporation of 14C-acetate: Fatty acids, percent referred to physiological solution): 44% | inhibition at 10 µM (HepG2; 10 μM, read-out: Incorporation of 14C-acetate: Phospholipids, percent referred to physiological solution): 34% | inhibition at 10 µM (HepG2; 10 μM, read-out: Incorporation of 14C-acetate: Triglycerides, percent referred to physiological solution): 11% | activity as regards the synthesis of the esters of the cholesterol (HepG2; summary of Table 4): 70-75%

Vitamin E
atherogenic potentialities of the LDL (LDL): remarkably lowered | risk of vascular pathologies (men and women): lowering of the risk of vascular pathologies

— patent publication US5608084A, “Lactones with antioxidising and hypolipidaemic activity useful in the therapy of the atherosclerosis” (priority 1994, dated 1997)
